Laboratory results: patent US20080200405A1, “Drug Resistance Reversal In Neoplastic Disease” (priority 2007, published 2008)
Like-named read-outs stand apart in the source and are kept apart here. Marks after values point to notes of the source that are not given here.

Columns and labels:
Lipid peroxidation = Lipid peroxidation inhibition (method of Ohkawa); format: biochemical; settings: for Lipid Peroxidation Inhibition, % Inhibition: 10 uM
Angiogenesis in CAM = test: Neovascularization on the CAM (Inhibition of Angiogenesis in CAM); format: in vivo, chicken; settings: 30 ug; for inhibition in vivo at 0.03 mg: Gallus gallus
Experimental: In vivo neovascularization was examined by the method previously described by Auerbach et al. (J. Dev. Biol. 41:391-394 (1974)). Ten-day old chicken embryos were purchased from Spafas, Inc. (Preston, Conn.) and were incubated at 37° C. with 55% relative humidity. In the dark, with the aid of a candling lamp, a small hole was punctured in the shell concealing the air sac with a hypodermic needle. A second hole was punctured in the shell on the broadside of the egg directly over an […] portion of the embryonic membrane, as observed during candling. An artificial air sac was created beneath the second hole by applying gentle vacuum to the first hole using a small rubber squeeze bulb. The vacuum caused the chorioallantoic membrane (CAM) to separate from the shell. A window, approximately 1.0 cm^2, was cut in the shell over the dropped CAM with the use of a small crafts grinding wheel (Dremel, Division of Emerson Electric Company Racine, Wis.). The window allowed direct access to the underlying CAM. A pro-angiogenic agent was added to induce new blood vessel branches on the CAM of 10-day old embryos. […] Louis, Mo.) in a solution (95% ethanol and water). The disks were subsequently air dried under sterile conditions. The disks were then suspended in PBS (Phosphate Buffered Saline) and placed on growing CAMs. […] For inducing angiogenesis, sterile filter disks were saturated with bFGF (1 μg/ml) (Life Technologies, Gaithersburg, Md.) or other pro-angiogenesis factors and control disks were saturated with PBS without Calcium and Magnesium. Control disks were saturated with PBS without Calcium and Magnesium. Using sterile forceps one filter/CAM was placed from the window. The window was sealed with Highland brand transparent tape. After 24-48 hr, 10-25 ul of test agent was injected intravenously or added topically into the CAM membrane. Eight-Ten eggs/treatment group were used. CAM tissue directly beneath filter disk was harvested from embryos treated 48 hours prior with compound or control. Tissues were washed three times with PBS. Sections were placed in a 35-mm petri dish (Nalge Nunc, Rochester, N.Y.) and examined under a SV6 stereomicroscope (Karl Zeiss, Thornwood, N.Y.) at 50× magnification. […] Digital images of CAM sections from Petri dish were collected using a 3-CCD color video camera system (Toshiba America, New York, N.Y.). These images were analyzed using Image-Pro Plus software (Media Cybernetics, Silver Spring, Md.). The number of branch points in blood vessels within the circular region superimposed to the area of a filter disk was counted for each section. […] Tissues were washed three times with PBS. Sections were placed in a 35-mm Petri dish (Nalge Nunc; Rochester, N.Y.) and were examined under a SV6 stereomicroscope (Karl Zeiss; Thornwood, N.Y.) at 50× magnification. Digital images of CAM sections adjacent to filters were collected using a 3-CCD color video camera system (Toshiba America; New York, N.Y.) and analyzed with the Image-Pro Plus software (Media Cybernetics; Silver Spring, Md.). The number of vessel branch points contained in a circular region equal to the area of a filter disk was counted for each section. Percent inhibition data are expressed as the quotient of the experimental value minus the negative control value divided by the difference between the positive control value and the negative control value. One image was counted in each CAM preparation, and findings from eight CAM preparations were analyzed for each treatment condition. In addition, each experiment was performed three times. The resulting angiogenesis index is the mean ±SEM (Standard Error of Measurement) of new branch points in each set of treatment. Statistical analysis of blood vessel branching patterns are performed by 1-way analysis of variance (ANOVA) comparing experimental with corresponding control groups.

TNFα = test: Measurement of LPS Induced-TNFα in THP-1 Cells; format: cell-based, human
[1] = test system: Doxorubicin resistant SaOS2 cells; test: Cancer cell viability (MTT) in the presence or absence of doxorubicin; format: cell-based, human; settings: compound 50 ug/mL, 3 days
[2] = test system: angiogenesis in the CAM model; test: Effect of TEMPOL-H on the anti-angiogenesis efficacy of ranibizumab in the CAM model; format: in vivo, chicken; settings: for Mean % Inhibition +/− SEM, With TEMPOL-H (30 ug): P < 0.01; for Mean % Inhibition +/− SEM, Without TEMPOL-H: n = 6-8
Experimental: FIGS. 3A and 3B depict the effect of TEMPOL-H (OT-674) on the anti-angiogenesis efficacy of ranibizumab (LUCENTIS™) in the CAM model. FIG. 3A depicts 30 ug of TEMPOL-H and 1 ng of ranibizumab. FIG. […]
Ranibizumab (Genentech, South San Francisco, Calif.) is a monoclonal antibody fragment that binds to VEGF-A. It is anti-angiogenic and is approved to treat the wet type of age-related macular degeneration. The effect of the co-administration of TEMPOL-H (also referred to as OT-674) with Ranibizumab is depicted in Table 9. This effect is also depicted in FIGS. 3A and 3B.

[3] = test system: Human whole blood clot formation
Experimental: TEG: Human whole blood (±drugs) was added to the cylindrical cuvette (“cup”). […] The cup oscillates 4°45′ ( 1/12 radian) in either direction every 4.5 seconds, with a 1-second mid-cycle stationary period, resulting in a frequency of 0.1 Hz and a maximal shear rate of 0.1 per second. The pin was suspended by a torsion wire that acts as a torque transducer. […] The torque experienced by the pin (relative to the oscillation of the cup) was plotted as a function of time (Forsythe, S. A. M. S. K. M. S. (2000): “Comparative In Vitro Efficacy of Different Platelet Glycoprotein IIb/IIIa Antagonists on Platelet-Mediated Clot Strength Induced by Tissue Factor With Use of Thromboelastography.” Arteriosclerosis, Thrombosis, and Vascular Biology 20: 1162).
(Data represent mean ±SD, n=6 (blood form normal healthy volunteers), *P<0.01 as compared to control)

[4] = Homo sapiens, THP-1, compound 10 uM, 5 ng/mL LPS, read-out: Mean Percent Inhibition of TNF-alpha using 5 ng/mL LPS
[5] = Homo sapiens, THP-1, read-out: TNFalpha IC50
[6] = TEG, human whole blood, Ranibizumab 1 ng/cup, Comp. 4 0 uM, *P<0.01 vs control

| IC50 (TNFα; [5]) [µM] | melting point | Molecule | Lipid Peroxidation Inhibition, % Inhibition (Lipid peroxidation) [%] | inhibition in vivo at 0.03 mg (Angiogenesis in CAM) [%] | Mean OD (×10^−3), MTT viability ([1]; Dox. 10^−6 M (+)) | Mean OD (×10^−3), MTT viability ([1]; absence of Dox. (−)) | further results |
| --- | --- | --- | --- | --- | --- | --- | --- |
| – | – | COc1cc2c(cc1O)CC[C@@H]1[C@@H]2CC[C@]2(C)[C@@H](O)CC[C@@H]12 [2-methoxyestradiol, reference compound] | 92.3 | – | – | – | Inhibition of Angiogenesis in CAM, % Inhibition (Angiogenesis in CAM): 92.3% |
| 21.5 | 186 °C (dec.) | CC1(C)CC(C#N)CC(C)(C)N1O.Cl [Compound 12, 4-cyano-1-hydroxyl-2,2,6,6-tetramethylpiperidine hydrogen chloride] | – | 92.1 | 287.25 ×10^−3 | 539.25 ×10^−3 | inhibition at 10 µM (TNFα; [4]): 35% |
| – | – | CC1(C)CC(Oc2nsnc2OC2CC(C)(C)N(O)C(C)(C)C2)CC(C)(C)N1O [Compound 14, 1-hydroxyl-4-(4-(2,2,6,6-tetramethylpiperidin-1-hydroxyl-4-yloxy)-1,2,5-thiadiazol-3-yloxy)-2,2,6,6-tetramethylpiperidine bis-hydrogen chloride] | – | 95.2 | – | – | inhibition at 10 µM (TNFα; Homo sapiens, THP-1, read-out: Mean Percent Inhibition of TNF-alpha using 5 ng/mL LPS): 63 ± 1%; IC50 (TNFα; Homo sapiens, THP-1, read-out: TNFalpha IC50 (uM)): 11.4 µM |
| – | 225.5 °C (dec.) | CC1(C)c2ccc(C(=O)O)cc2C(C)(C)N1O.Cl [Compound 15, 1,1,3,3-tetramethylisoindolin-2-hydroxyl-5-carboxylic acid hydrogen chloride] | 94.6 | 94.6 | – | – | inhibition at 10 µM (TNFα; [4]): 67 ± 7%; % Lipid Peroxidation inhibition (at 1 uM) (Lipid peroxidation; 1 uM): 88.0% |
| ≥ 100 | 184.6 °C (dec.) | CC1(C)COCC(C)(C)N1O.Cl [Compound 20, 3,3,5,5-1-hydroxy-tetramethylmorpholine hydrogen chloride] | 90.2 | 90.2 | 107.5 ×10^−3 | 515.50 ×10^−3 | – |
| 21.7 | 201.8 °C (dec.) | CC1(C)CC(Cl)CC(C)(C)N1O.Cl [Compound 21, 4-chloro-1-hydroxy-2,2,6,6-tetramethylpiperidine hydrogen chloride] | – | 94.1 | 99.25 ×10^−3 | 492.75 ×10^−3 | – |
| – | – | CC1(C)C=C(C(N)=O)C(C)(C)N1O [Compound 23, 2,5-dihydro-2,2,5,5-tetramethyl-1H-pyrrole-3-carboxamide-1-hydroxy] | – | – | 416.25 ×10^−3 | 1432.50 ×10^−3 | IC50 (TNFα; read-out: TNFalpha IC50): 87.4 µM; % inhibition of angiogenesis in CAM at 30 ug (Angiogenesis in CAM): 48.8 |
| ≥ 100 | – | CC1(C)CC(NC(=O)C2CC2)C(C)(C)N1O.Cl (stereo not drawn) [Compound 38, N-(1-hydroxy-2,2,5,5-tetramethylpyrrolidin-3-yl)cyclopropanecarboxamide hydrogen chloride] | – | – | 378.50 ×10^−3 | 1202.75 ×10^−3 | % inhibition of angiogenesis in CAM at 30 ug (Angiogenesis in CAM): 62.8 |
| – | – | Ranibizumab: a monoclonal antibody fragment that binds to VEGF-A | – | – | – | – | Mean % Inhibition +/− SEM, With TEMPOL-H (30 ug) ([2]; VEGF + Ranibizumab (1 ug) with TEMPOL-H (30 ug)): 54 +/− 9* %; Mean % Inhibition +/− SEM, Without TEMPOL-H ([2]; VEGF + Ranibizumab (1 ug)): 18 +/− 5%; Mean % Inhibition +/− SEM, With TEMPOL-H (30 ug) ([2]; VEGF + Ranibizumab (10 ug) with TEMPOL-H (30 ug)): 69 +/− 6* %; Mean % Inhibition +/− SEM, Without TEMPOL-H ([2]; VEGF + Ranibizumab (10 ug)): 33 +/− 6%; Mean % Inhibition +/− SEM, With TEMPOL-H (30 ug) ([2]; VEGF + Ranibizumab (100 ug) with TEMPOL-H (30 ug)): 83 +/− 4* %; Mean % Inhibition +/− SEM, Without TEMPOL-H ([2]; VEGF + Ranibizumab (100 ug)): 53 +/− 8%; MA in comparison to native blood [3]: approximately six times larger MA; initiation of clot formation in comparison to native blood [3]: approximately two to three fold faster; Clot Strength - MA [3, 6]: 28.5 ± 3.4* mm; Time to Clot Initiation R [3, 6]: 6.9 ± 1.4* min |
